Test results reported in patent EP1979351B1, “6-PHENYL-1H-IMIDAZO[4, 5-C]PYRIDINE-4-CARBONITRILE DERIVATIVES AS CATHEPSIN K AND S INHIBITORS” (N.V. Organon, priority 2006, dated 2007).

Molecular target: recombinant human Cathepsin S (Homo sapiens, UniProt P25774)
Experiment: Cathepsin S assay procedure: inhibition of enzyme activity, fluorescence of liberated aminomethylcoumarin
Format: biochemical
Conditions: activated recombinant human cathepsin S; substrate Z-Val-Val-Arg-AMC; sodium acetate pH5.5; fluorescence at 20 minutes; dose response curve; read-out: pIC50 (negative logarithm of the IC50 concentration) for inhibition of human cathepsin S (converted)
Description: 25µl of a 2mg/l solution of activated recombinant human cathepsin S, in assay buffer, is then added to the well, yielding a final inhibitor concentration of 10µM.
Enzyme activity is determined by measuring the fluorescence of the liberated aminomethylcoumarin at […] using 390nm excitation, at 20 minutes. Percentage enzyme activity is calculated by comparison of this activity to that of a solution containing no inhibitor.

Chain of recombinant human Cathepsin S (P25774 115-331): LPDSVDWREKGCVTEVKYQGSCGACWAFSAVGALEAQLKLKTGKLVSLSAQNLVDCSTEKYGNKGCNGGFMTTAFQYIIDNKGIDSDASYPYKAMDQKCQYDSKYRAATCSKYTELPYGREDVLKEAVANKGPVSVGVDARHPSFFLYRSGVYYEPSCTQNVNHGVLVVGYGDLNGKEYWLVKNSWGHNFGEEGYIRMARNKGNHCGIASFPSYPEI

IC50 [nM]	Structure (SMILES)
< 100	CCOc1ccc(-c2cc3[nH]c(CN4CCN(CCO)CC4)nc3c(C#N)n2)cc1C(F)(F)F [Example 13l, 6-(4-Ethoxy-3-trifluoromethyl-phenyl)-2-[4-(2-hydroxy-ethyl)-piperazin-1-ylmethyl]-1H-imidazo[4,5-c]pyridine-4-carbonitrile]
< 100	CCOc1ccc(-c2cc3c(ncn3CCCC(=O)O)c(C#N)n2)cc1C(F)(F)F [Example 4, [4-Cyano-6-(4-ethoxy-3-trifluoromethyl-phenyl)-imidazo[4,5-c]pyridin-1-yl]-butyric acid]
